According to US6387850B1, “Pesticide composition and method” (Application Technologies, Inc., priority 1998, dated 2002):

Legend:
Experiment in all cases: Field weed control in glyphosate-tolerant soybeans, visual rating
Type in all cases: in vivo
Conditions in all cases: 23 days after application, scale 0 = no, 10 = complete weed control
[1] = tested on: volunteer corn (Zea mays)
From the text: (§1) Materials and Methods: Applications were made to glyphosate-tolerant soybeans on Jun. 10, 1998. Weed species present ranging in height from 5 to 20 cm included giant foxtail (Setaria faberii), barnyard grass (Echinochloa crus-galli), volunteer corn (Zea mays) and yellow foxtail (Setaria glauca) Treatments were applied using Spraying Systems Turbo TeeJet TT-11002 nozzles spaced 50 cm apart on the spray boom at 207 kPa spray pressure resulting in a spray volume application of […] liters per hectare.
(§2) Spray solutions consisted of two comparison levels of mineral hardness as measured by TDS in ppm. The original solution consisted of 10 ppm. The second solution measuring 400 ppm was established using calcium chloride at approximately 227 grams per 378 liters.
(§3) Herbicide applications of glyphosate in form of Roundup Ultra® (Monsanto Company) formulation were applied at four rates: 26, 53, 105 and 210 grams of acid equivalent per hectare (g ae/ha) A spray adjuvant, Array® at 4 kilograms per 378 liters of spray solution was added to the spray solution prior to the addition of the herbicide. Array was evaluated across herbicide and spray solution treatments. Array consists of a micro-homogenized combination of AMS (ammonium sulfate) fertilizer at 94.4% analysis 21-0-0-24 (nitrogen-phosphorus-potassium-sulfur) and DR 2000 (Rhodia Surfactants) at 5.6%, a short-chain guar-based polymer.

[2] = tested on: yellow foxtail (Setaria glauca)
From the text: as §1, §2, §3

[3] = tested on: barnyard grass (Echinochloa crus-galli)
From the text: as §1, §2, §3

[4] = tested on: giant foxtail (Setaria faberii)
From the text: as §1, §2, §3

[5] = 26 g ae/ha, solution TDS 10 ppm, Array 4 kg/378 L Yes
[6] = 26 g ae/ha, solution TDS 10 ppm, Array No
[7] = 26 g ae/ha, solution TDS 400 ppm, Array 4 kg/378 L Yes
[8] = 26 g ae/ha, solution TDS 400 ppm, Array No
[9] = 53 g ae/ha, solution TDS 10 ppm, Array 4 kg/378 L Yes
[10] = 53 g ae/ha, solution TDS 10 ppm, Array No
[11] = 53 g ae/ha, solution TDS 400 ppm, Array 4 kg/378 L Yes
[12] = 53 g ae/ha, solution TDS 400 ppm, Array No
[13] = 105 g ae/ha, solution TDS 10 ppm, Array 4 kg/378 L Yes
[14] = 105 g ae/ha, solution TDS 10 ppm, Array No
[15] = 105 g ae/ha, solution TDS 400 ppm, Array 4 kg/378 L Yes
[16] = 105 g ae/ha, solution TDS 400 ppm, Array No
[17] = 210 g ae/ha, solution TDS 10 ppm, Array 4 kg/378 L Yes
[18] = 210 g ae/ha, solution TDS 10 ppm, Array No
[19] = 210 g ae/ha, solution TDS 400 ppm, Array 4 kg/378 L Yes
[20] = 210 g ae/ha, solution TDS 400 ppm, Array No

SMILES: O=C(O)CNCP(=O)(O)O [Glyphosate, glyphosate]
- Visual rating of weed control, Volunteer Corn [1, 5]: 2
- Visual rating of weed control, Volunteer Corn [1, 6]: 1
- Visual rating of weed control, Volunteer Corn [1, 7]: 1
- Visual rating of weed control, Volunteer Corn [1, 8]: 0
- Visual rating of weed control, Volunteer Corn [1, 9]: 4
- Visual rating of weed control, Volunteer Corn [1, 10]: 3
- Visual rating of weed control, Volunteer Corn [1, 11]: 2
- Visual rating of weed control, Volunteer Corn [1, 12]: 1
- Visual rating of weed control, Volunteer Corn [1, 13]: 8
- Visual rating of weed control, Volunteer Corn [1, 14]: 5
- Visual rating of weed control, Volunteer Corn [1, 15]: 3
- Visual rating of weed control, Volunteer Corn [1, 16]: 2
- Visual rating of weed control, Volunteer Corn [1, 17]: 10
- Visual rating of weed control, Volunteer Corn [1, 18]: 9
- Visual rating of weed control, Volunteer Corn [1, 19]: 6
- Visual rating of weed control, Volunteer Corn [1, 20]: 5
- Visual rating of weed control, Yellow Foxtail [2, 5]: 2
- Visual rating of weed control, Yellow Foxtail [2, 6]: 2
- Visual rating of weed control, Yellow Foxtail [2, 7]: 1
- Visual rating of weed control, Yellow Foxtail [2, 8]: 0
- Visual rating of weed control, Yellow Foxtail [2, 9]: 4
- Visual rating of weed control, Yellow Foxtail [2, 10]: 3
- Visual rating of weed control, Yellow Foxtail [2, 11]: 2
- Visual rating of weed control, Yellow Foxtail [2, 12]: 1
- Visual rating of weed control, Yellow Foxtail [2, 13]: 7
- Visual rating of weed control, Yellow Foxtail [2, 14]: 5
- Visual rating of weed control, Yellow Foxtail [2, 15]: 3
- Visual rating of weed control, Yellow Foxtail [2, 16]: 2
- Visual rating of weed control, Yellow Foxtail [2, 17]: 9
- Visual rating of weed control, Yellow Foxtail [2, 18]: 8
- Visual rating of weed control, Yellow Foxtail [2, 19]: 5
- Visual rating of weed control, Yellow Foxtail [2, 20]: 5
- Visual rating of weed control, Barnyard Grass [3, 5]: 3
- Visual rating of weed control, Barnyard Grass [3, 6]: 2
- Visual rating of weed control, Barnyard Grass [3, 7]: 1
- Visual rating of weed control, Barnyard Grass [3, 8]: 0
- Visual rating of weed control, Barnyard Grass [3, 9]: 5
- Visual rating of weed control, Barnyard Grass [3, 10]: 4
- Visual rating of weed control, Barnyard Grass [3, 11]: 2
- Visual rating of weed control, Barnyard Grass [3, 12]: 1
- Visual rating of weed control, Barnyard Grass [3, 13]: 7
- Visual rating of weed control, Barnyard Grass [3, 14]: 5
- Visual rating of weed control, Barnyard Grass [3, 15]: 3
- Visual rating of weed control, Barnyard Grass [3, 16]: 2
- Visual rating of weed control, Barnyard Grass [3, 17]: 10
- Visual rating of weed control, Barnyard Grass [3, 18]: 9
- Visual rating of weed control, Barnyard Grass [3, 19]: 6
- Visual rating of weed control, Barnyard Grass [3, 20]: 5
- Visual rating of weed control, Giant Foxtail [4, 5]: 3
- Visual rating of weed control, Giant Foxtail [4, 6]: 2
- Visual rating of weed control, Giant Foxtail [4, 7]: 1
- Visual rating of weed control, Giant Foxtail [4, 8]: 0
- Visual rating of weed control, Giant Foxtail [4, 9]: 4
- Visual rating of weed control, Giant Foxtail [4, 10]: 3
- Visual rating of weed control, Giant Foxtail [4, 11]: 2
- Visual rating of weed control, Giant Foxtail [4, 12]: 1
- Visual rating of weed control, Giant Foxtail [4, 13]: 8
- Visual rating of weed control, Giant Foxtail [4, 14]: 6
- Visual rating of weed control, Giant Foxtail [4, 15]: 3
- Visual rating of weed control, Giant Foxtail [4, 16]: 2
- Visual rating of weed control, Giant Foxtail [4, 17]: 10
- Visual rating of weed control, Giant Foxtail [4, 18]: 9
- Visual rating of weed control, Giant Foxtail [4, 19]: 6
- Visual rating of weed control, Giant Foxtail [4, 20]: 5
